Laboratory results published in patent US6706257B1, “Sunless tanning products and processes” (Discovery Partners, LLC, priority 2001, dated 2004).

Columns and labels:
[1] = test system: skin; assay: Tanning effect of MSM additions to DHA formulas or accelerators; type: in vivo, human
Text: Applicant has conducted experiments with a typical oil-in-water self tanning cream containing DHA as the self tanning agent with or without the inclusion of MSM. […] Applicant also conducted experiments with DHA containing self-tanning liquid mousse compositions, with and without MSM.

[2] = Solubility of MSM in water; type: physicochemical; conditions: by weight

solubility of MSM in water [2]: ~20%
SMILES: CS(C)(=O)=O [MSM, methylsulfonyl methane]
tanning effect ([1]; 0.1% addition of MSM): ineffective
tanning effect ([1]; addition of 5% MSM to DHA formulas, with or without soluble dyes): enhances tanning effect producing a more intense hue that lasts longer
